Results reported in patent US20250041283A1, “COCRYSTAL OF AN IDH1 INHIBITOR, PROCESS OF PREPARATION THEREOF, PHARMACEUTICAL COMPOSITIONS THEREOF, AND METHODS OF TREATMENT INVOLVING THE SAME” (Servier Pharmaceuticals LLC, priority 2023, published 2025).

Columns and labels:
[1] = Flowability of lubricated mixtures (European Pharmacopeia); type: physicochemical
Procedure: The flowability of the lubricated mixture previously prepared was measured according to the Guidelines of European Pharmacopeia.

[2] = Comparative rat PK study, oral capsules; type: in vivo; details: male Wistar rats, 24 mg/kg
Procedure: The objective of this study was to compare the pharmacokinetics (PK) of four oral (PO) dosage forms of Compound 1 in male Wistar rats (4 groups, N=3/group). Lubricated mixtures prepared from Examples 5A (prepared from Form 1 and Form T11) and 5B (prepared from cocrystal of Example 1) and amorphous solid dispersion of Compound 1 obtained through spray drying as in commercial batches were manually and individually filled in capsules (Size 9).
The administered dose was 24 mg/kg, considering that each rat's weight was around 250 g.
Methods: Animals were fasted approximately 6 hours before dosing and fed 3 at 4 hours post-dose. All animals had free access to water. Compound 1 dose were given to rats via oral gavage (2 capsules/one single administration). Blood samples were collected via the saphenous vein into test tubes containing potassium ethylenediaminetetraacetic acid (K2EDTA) from all animals at 0.25, 0.5, 1, 2, 4, 8, 24, 48 and 72 hours post-dose. Blood sample were centrifuged at 2000 g for 5 minutes to obtain plasma samples. Compound 1 concentration in plasma samples was quantified using a liquid chromatography with tandem mass spectrometry (LC-MS/MS) method. The lower limit of quantification was 1.00 ng/mL with a sample volume of 20 μL.

[3] = Solubility in biorelevant media (SGF, FASSIF); type: physicochemical; details: thermodynamic from solid, 37° C., after 1 h
[4] = Physicochemical stability of cocrystal powder stressed at different temperatures and humidities (XRPD); details: 6 weeks and 12 months at 25° C./60% RH, 25° C./90% RH, 40° C./75% RH and 50° C.
Procedure: (§1) FIG. 5 depicts the overlay of the X-ray diffraction spectra of the glutaric acid cocrystal type A of Compound 1 stressed 6 weeks at 25° C./60% RH, 25° C./90% RH, 40° C./75% RH and 50° C. with the theoretical X-ray diffraction spectrum of the said cocrystal (calculated form the single crystal structure).
as §1, with “FIG. 6” for “FIG. 5”, “stressed 12 months” for “stressed 6 weeks”
The XRPD patterns were recorded from 3.5° 2q to 35° 2q using an Empyrean diffractometer from Panalytical operating in the transmission mode with CuKα radiation (l=1.5418 Å) at 45 kV and 40 mA and with a 0.013° 2q step size for 15 minutes (list of examples).

[5] = Four weeks stability study of lubricated mixtures and tablets (XRPD); type: physicochemical; details: 4 weeks, open vials, 25° C./60% RH and 40° C./75% RH
Procedure: Four weeks stability of samples of lubricated mixtures of Example 3B and 5B and tablets of Example 6 prepared from cocrystal of Example 1 was tested according to the following protocol.
All the samples were stored 4 weeks in controlled temperature and humidity chambers in open vials at 25° C./60% RH or 40° C./75% RH. The XPRD analyses were performed extemporaneously in order to be representative of all the samples at temperature and humidity equilibria.
Tablets of Cocrystal+AQ/AV or AV (from Example 6) were gently grinded leading a powder suitable for XRPD analysis. Lubricated mixtures from Examples 3B and 5B were analyzed without grinding. The XRPD patterns were recorded from 3.5° 2q to 35° 2q using an Empyrean diffractometer from Panalytical operating in the transmission mode with CuKα radiation (l=1.5418 Å) at 45 kV and 40 mA and with a 0.013° 2q step size for 30 minutes.

[6] = Sorption/desorption isotherm 0% RH to 90% RH at 25° C.; type: physicochemical
Procedure: The sorption isotherm of the cocrystal was recorded between 0% RH and 90% RH at 25° C. (see FIG. 7).
The sorption/desorption isotherm of the cocrystal was recorded using the following method: • Equilibrate the sample at 0% RH until the dm/dt was below 0.0005% for 30 consecutive minutes or until maximum 24 hours. • Increase of the relative humidity up to 90% RH with step every 10% RH. Each step was maintained until the dm/dt was below 0.0005% for 30 consecutive minutes or until maximum 24 hours. • Decrease of the relative humidity up to 0% RH with step every 10% RH. Each step was maintained until the dm/dt was below 0.0005% for 30 consecutive minutes or until maximum 24 hours.

[7] = Tablets by direct compression: hardness and tensile strength; type: physicochemical; details: 50 mg tablets, 0.5% magnesium stearate
Procedure: Tablets were prepared by direct compression using a STYL'ONE EVO compaction simulator from Medelpharm Instruments.
Compound 1, either in Form 1, Form T11 or as a glutaric acid cocrystal type A was lubricated by 0.5% magnesium stearate before compression. 99.5% of Compound 1 and 0.5% of magnesium stearate (e.g., 4.975 g of Compound 1 and 0.025 g of magnesium stearate) were used. Compound 1 was weighed, and magnesium stearate was sifted on a 0.4 mm sieve and added progressively to Compound 1. The mixture was homogenized using a Turbula T2F blender for 5 minutes.
50 mg tablets were prepared using a STYL'ONE EVO compaction simulator applying a compressing force of 2.5 kN or 5.0 kN.

[8] = lubricated mixtures of Examples 3A and 3B
[9] = compressive force applied 2.5 kN
[10] = compressive force applied 5.0 kN

SMILES: N#Cc1ccnc(N2C(=O)CC[C@H]2C(=O)N(c2cncc(F)c2)[C@H](C(=O)NC2CC(F)(F)C2)c2ccccc2Cl)c1 [Glutaric acid cocrystal of Compound 1]
- Carr's Index [1, 8]: 24%
- Carr's Index (flowability) rating [1, 8]: Adequate
- Flowability [1, 8]: suitable flowability
- Hausner ratio [1, 8]: 1.32
- Hausner ratio (cohesion + compressibility) rating [1, 8]: Adequate
- Flow time ([1]; lubricated mixtures of Examples 3A and 3B (AV, without AQ), N.S.F. = no spontaneous flow detected): 8.3 s
- Inter-individual variability [2]: 11%
- Kinetics of absorption / absorption profile versus commercial formulation [2]: comparable to the one of the commercial formulation
- bioavailability ([2]; rat, plasma, read-out: Relative bioavailability compared to commercial formulation): 61%
- solubility at 1 h ([3]; simulated gastric fluid, SGF): 8 µg/mL
- solubility at 1 h ([3]; FASSIF): 13 µg/mL
- Physicochemical stability of the powder [4]: physicochemically stable
- Stability of the cocrystal in lubricated mixtures and tablets (AQ/AV or AV) [5]: perfectly stable
- Stability in humidity conditions (sorption isotherm) [6]: stable
- Tablet hardness [7, 9]: 41.6 N
- Tensile strength [7, 9]: 2.562 MPa
- Tablet hardness [7, 10]: 46.4 N
- Tensile strength [7, 10]: 2.998 MPa
